According to the NIST ThermoML archive (doi:10.1021/je0502400):

Columns and labels:
[1] = mn = molality of the nth substance listed, in mol/kg; settings: 298 K, 101 kPa, Liquid
[2] = molar heat capacity at constant pressure; mn = molality of the nth substance listed, in mol/kg; settings: 298.15 K, 101 kPa, Liquid, Flow calorimetry

O=C([O-])CCC(=O)[O-].[Na+].[Na+] [disodium succinate] + O
Settings | mass density, [1] [kg/m3] | molar heat capacity at constant pressure, [2] [J/K/mol]
m1 = 0.009952 | 998.141 | 75.32
m1 = 0.02038 | 999.243 | 75.31
m1 = 0.04187 | 1001.53 | 75.28
m1 = 0.06054 | 1003.53 | 75.26
m1 = 0.1003 | 1007.7 | 75.22
m1 = 0.2003 | 1018 | 75.2
m1 = 0.3001 | 1028.05 | 75.23
m1 = 0.5006 | 1047.46 | 75.44
m1 = 0.7497 | 1070.41 | 75.93
m1 = 1 | 1092.29 | 76.61
m1 = 1.494 | 1132.32 | 78.38
m1 = 1.999 | 1169.44 | 80.61

O=C([O-])C(=O)[O-].[K+].[K+] [potassium oxalate] + O
Settings | mass density, [1] [kg/m3] | molar heat capacity at constant pressure, [2] [J/K/mol]
m1 = 0.01029 | 998.319 | 75.17
m1 = 0.01993 | 999.506 | 75
m1 = 0.03995 | 1001.9 | 74.67
m1 = 0.06118 | 1004.41 | 74.34
m1 = 0.1011 | 1009.21 | 73.71
m1 = 0.1971 | 1020.46 | 72.27
m1 = 0.2996 | 1032.09 | 70.86
m1 = 0.501 | 1054.2 | 68.3
m1 = 0.7483 | 1080.17 | 65.5
m1 = 0.9987 | 1105.27 | 63
m1 = 1.197 | 1124.39 | 61.21
m1 = 1.396 | 1142.79 | 59.54
m1 = 1.497 | 1151.71 | 58.76

[Cl-].[Na+] [sodium chloride] + O
Settings | mass density, m1 = 0.9998 [kg/m3] | mass density, m1 = 1.999 [kg/m3] | mass density, m1 = 3 [kg/m3] | molar heat capacity at constant pressure, m1 = 0.9998 [J/K/mol] | molar heat capacity at constant pressure, m1 = 1.999 [J/K/mol] | molar heat capacity at constant pressure, m1 = 3 [J/K/mol]
[1] | 1036.18 | 1072.22 | 1105.7 | – | – | –
[2] | – | – | – | 73.34 | 72.23 | 71.74

O=C([O-])CC(=O)[O-].[Na+].[Na+] [sodium malonate] + O
Settings | mass density, [1] [kg/m3] | molar heat capacity at constant pressure, [2] [J/K/mol]
m1 = 0.0102 | 998.203 | 75.19
m1 = 0.02019 | 999.271 | 75.06
m1 = 0.04023 | 1001.44 | 74.8
m1 = 0.05997 | 1003.61 | 74.54
m1 = 0.09952 | 1007.82 | 74.04
m1 = 0.2049 | 1018.85 | 72.81
m1 = 0.3005 | 1028.55 | 71.8
m1 = 0.4985 | 1048.21 | 69.9
m1 = 0.7356 | 1070.79 | 68.01
m1 = 0.9746 | 1092.13 | 66.27
m1 = 1.481 | 1134.8 | 63.33
m1 = 1.995 | 1173.58 | 61.03
m1 = 2.993 | 1241.78 | –
m1 = 3.991 | 1296.36 | –

O=C([O-])C(=O)[O-].[Na+].[Na+] [sodium oxalate] + O
Settings | mass density, [1] [kg/m3] | molar heat capacity at constant pressure, [2] [J/K/mol]
m1 = 0.009986 | 998.164 | 75.31
m1 = 0.01989 | 999.268 | 75.27
m1 = 0.03998 | 1001.48 | 75.22
m1 = 0.0603 | 1003.67 | 75.17
m1 = 0.09999 | – | 75.08
m1 = 0.1502 | 1013.28 | 75
m1 = 0.1996 | 1018.42 | 74.93
m1 = 0.2494 | 1023.55 | 74.88
